Test results published in PubChem BioAssay (NCI).
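These data come from cells grown in 96-well plates and exposed to compound for 48 hours at five concentrations. TGI is the concentration that stops growth completely.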

Legend:
Experiment in all cases: NCI tumour cell line growth inhibition, 48 h
BT-549 breast = test system: BT-549 breast
SF-268 CNS = test system: SF-268 CNS
MDA-MB-231 breast = test system: MDA-MB-231 breast
SNB-19 CNS = test system: SNB-19 CNS
OVCAR-3 ovarian = test system: OVCAR-3 ovarian
ACHN renal = test system: ACHN renal
NCI/ADR-RES ovarian = test system: NCI/ADR-RES ovarian
UO-31 renal = test system: UO-31 renal
NCI-H23 lung = test system: NCI-H23 lung
HCT-116 colon = test system: HCT-116 colon
UACC-257 melanoma = test system: UACC-257 melanoma
LOX IMVI melanoma = test system: LOX IMVI melanoma
CCRF-CEM leukemia = test system: CCRF-CEM leukemia
DU-145 prostate = test system: DU-145 prostate
K-562 leukemia = test system: K-562 leukemia
HS 578T breast = test system: HS 578T breast
OVCAR-8 ovarian = test system: OVCAR-8 ovarian
MALME-3M melanoma = test system: MALME-3M melanoma
OVCAR-5 ovarian = test system: OVCAR-5 ovarian
SF-539 CNS = test system: SF-539 CNS

| SMILES | TGI (BT-549 breast) [µM] | TGI (SF-268 CNS) [µM] | TGI (MDA-MB-231 breast) [µM] | TGI (SNB-19 CNS) [µM] | TGI (OVCAR-3 ovarian) [µM] | TGI (ACHN renal) [µM] | TGI (NCI/ADR-RES ovarian) [µM] | TGI (UO-31 renal) [µM] | TGI (NCI-H23 lung) [µM] | TGI (HCT-116 colon) [µM] | TGI (UACC-257 melanoma) [µM] | TGI (LOX IMVI melanoma) [µM] | TGI (CCRF-CEM leukemia) [µM] | TGI (DU-145 prostate) [µM] | TGI (K-562 leukemia) [µM] | TGI (HS 578T breast) [µM] | TGI (OVCAR-8 ovarian) [µM] | TGI (MALME-3M melanoma) [µM] | TGI (OVCAR-5 ovarian) [µM] | TGI (SF-539 CNS) [µM] |
| --- | --- | --- | --- | --- | --- | --- | --- | --- | --- | --- | --- | --- | --- | --- | --- | --- | --- | --- | --- | --- |
| COC(=O)C1=C(OC(=O)/C(=C/c2ccccc2)c2ccc(Cl)cc2Cl)C(C(=O)OC)[C@@]2(O)[C@@H](C(=O)OC)[C@H](C)C[C@@H]1[C@@H]2C(=O)OC (stereo not given in full) | > 100 | > 100 | > 100 | > 100 | > 100 | > 100 | > 100 | > 100 | > 100 | > 100 | > 100 | > 100 | > 100 | > 100 | > 100 | > 100 | > 100 | > 100 | > 100 | > 100 |
| C[C@@H](C(=O)O)N1C(c2ccco2)=C(/C(C=O)=C\c2ccco2)C(=O)/C1=C\c1ccco1 | > 100 | > 100 | > 100 | > 100 | > 100 | > 100 | > 100 | > 100 | > 100 | > 100 | > 100 | > 100 | > 100 | > 100 | > 100 | > 100 | > 100 | > 100 | > 100 | > 100 |
| COc1ccc(Cn2c3c(cc(OC(C)=O)c2=O)Cc2ccccc2-3)cc1 | 35.1 | 33.8 | > 50 | > 50 | > 50 | 32 | 8.53 | 15.9 | 28.5 | 13.2 | 9.87 | 19.7 | > 50 | > 50 | 34 | > 50 | 20.3 | 32.2 | > 50 | 28.4 |
| CS(=O)(=O)C(C#N)c1nc2ccccc2nc1Cl (stereo not given) | > 100 | > 100 | > 100 | > 100 | > 100 | > 100 | > 100 | > 100 | > 100 | > 100 | > 100 | > 100 | > 100 | > 100 | > 100 | > 100 | > 100 | > 100 | > 100 | > 65.9 |
| COc1ccc(Cn2c(=O)c(OC)c(C)c3cc4ccccc4cc32)cc1 | > 100 | > 100 | > 100 | > 100 | > 100 | > 100 | 87.9 | > 100 | 77.5 | 43 | 9.02 | 41.7 | > 100 | > 100 | > 100 | > 100 | > 100 | 72.7 | > 100 | > 100 |
| N#Cc1c(-c2ccc(Cl)cc2)c2c(n(C3OC(CO)C(O)C(O)C3O)c1=S)CCCC2 (stereo not given) | > 100 | > 100 | > 100 | > 100 | > 100 | > 100 | > 100 | > 100 | > 100 | > 100 | > 100 | > 100 | > 100 | > 100 | > 100 | > 100 | > 100 | > 100 | > 100 | > 100 |
| COC(=O)[C@@H]1C=C[C@H](OC2OC(COC(C)=O)C(OC(C)=O)C(OC(C)=O)C2OC(C)=O)n2c(=O)n(-c3ccccc3)c(=O)n21 (stereo not given in full) | 6.26 | 8.17 | 8.42 | 25.8 | 3.24 | 3.17 | 31.4 | 5.25 | 14 | 3.82 | 5.07 | 3.09 | 4.42 | 15.7 | 4.02 | 45.8 | 8.03 | 4.07 | 12.6 | 8.21 |
| CCOC(=O)/C=C(\C(=O)OCC)n1cc(C)c(=O)n(Cc2cn(CCCCOC(C)=O)nn2)c1=O | 23.1 | 28.4 | 34.6 | 47.3 | 31.5 | 11.1 | 57 | 27.5 | 27.8 | 27.6 | 30.5 | 23.1 | 5.58 | 37.2 | 9.01 | 42.3 | 21.2 | 4.16 | 27.1 | 5.17 |
| CS(=O)(=O)Nc1ccc2ccccc2c1-c1c(NS(C)(=O)=O)ccc2ccccc12 | > 25 | > 25 | > 25 | > 25 | > 25 | > 25 | > 25 | > 25 | > 25 | > 25 | > 25 | > 25 | > 25 | > 25 | > 25 | > 25 | > 25 | > 25 | > 25 | > 25 |
| CC(C)NC(=O)OCc1c2c(n(C)c1COC(=O)NC(C)C)-c1cc(Cl)c(Cl)cc1CC2 | > 100 | > 100 | 55.3 | > 100 | 82.8 | > 100 | > 100 | > 100 | 87.9 | 66.9 | 86.8 | > 100 | 65.6 | > 100 | 41.6 | > 100 | > 100 | > 100 | > 100 | > 100 |
| Cc1cc(C)nc(NS(=O)(=O)c2ccc(Nc3c4ccccc4nc4ccc(C(=O)Nc5ccc(S(N)(=O)=O)cc5)cc34)cc2)n1 | 73.5 | > 100 | 52.6 | > 100 | > 100 | > 100 | > 100 | > 100 | > 100 | > 100 | > 100 | > 100 | > 100 | > 100 | > 100 | > 100 | > 100 | > 100 | > 100 | > 100 |
| O=C(CSc1nnc(-c2ccccn2)s1)N/N=C/c1ccccc1 | > 100 | > 100 | > 100 | > 100 | > 100 | > 100 | > 100 | > 100 | > 100 | > 100 | > 100 | > 100 | > 100 | > 100 | > 100 | > 100 | > 100 | > 100 | > 100 | > 100 |
